Laboratory results taken from patent US20230172204A1 (BASF SE, priority 2020, published 2023).

Assays:
Type in all cases: cell-based
[1] = test system: Pyricularia oryzae; assay: microbe, parasite or virus in culture; conditions: Pyricularia oryzae, 168 h, read-out: Fungal growth (%) PYRIOR
[2] = test system: Septoria tritici; assay: microbe, parasite or virus in culture; conditions: Zymoseptoria tritici, 168 h, read-out: Fungal growth (%) SEPTTR
[3] = test system: Colletotrichum orbiculare; assay: Micro titer plate test against Colletotrichum orbiculare causing anthracnose (COLLLA); conditions: Colletotrichum orbiculare, 168 h, read-out: Fungal growth (%) COLLLA
[4] = test system: Microdochium nivale; assay: Micro titer plate test against Microdochium nivale causing snow mould (MONGNI); conditions: Microdochium nivale, 168 h; 0.016 ppm; read-out: Fungal growth (%) MONGNI
[5] = test system: Pyrenophora teres (F129L); assay: Micro titer plate test against Pyrenophora teres causing net blotch on barley (PYRNTE F129L); conditions: 0.25 ppm
[6] = test system: Leptosphaeria nodorum; assay: Micro titer plate test against Leptosphaeria nodorum causing wheat leaf spots (LEPTNO); conditions: Parastagonospora nodorum, 168 h; 0.063 ppm; read-out: Fungal growth (%) LEPTNO
[7] = test system: Alternaria solani (wt); assay: microbe, parasite or virus in culture; conditions: Alternaria solani, 168 h, read-out: Fungal growth (%) ALTESO wt
[8] = test system: Alternaria solani (F129L); assay: Micro titer plate test against Alternaria solani causing early blight (ALTESO F129L); conditions: Alternaria solani, 168 h; 0.016 ppm; read-out: Fungal growth (%) ALTESO F129L
[9] = test system: Pyrenophora teres (wt); assay: Micro titer plate test against Pyrenophora teres causing net blotch on barley (PYRNTE wt); conditions: 168 h, 0.25 ppm, read-out: Fungal growth (%) PYRNTE wt
[10] = test system: Cercospora sojina; assay: microbe, parasite or virus in culture; conditions: Cercospora sojina, 168 h; 4 ppm; read-out: Fungal growth (%) CERCSO

Row | Compound | activity at 0.016 ppm [1] | activity at 0.25 ppm [2] | activity at 0.063 ppm [3] | activity at 0.016 ppm [4] | Fungal growth (%) PYRNTE F129L [5] | activity at 0.063 ppm [6] | activity at 0.016 ppm [7] | activity at 0.016 ppm [8] | activity at 0.25 ppm [9] | activity at 4 ppm [10] | activity at 0.25 ppm ([7]; 0.25 ppm)
1 | CO/N=C(/C(=O)OC)c1cccc(C)c1CO/N=C(\SC)c1cccc(C)c1 [drawing 950] | 87% | 61% | 81% | 69% |  |  |  |  |  |  | 
2 | CO/N=C(/C(=O)OC)c1cccc(C)c1CO/N=C(/c1cccc(C)c1)C1CC1 [drawing 951] | 82% | 89% | 93% | 84% | 87% |  |  |  |  |  | 
3 | CO/N=C(/C(=O)OC)c1cccc(C)c1CO/N=C(\SC)c1cccc(C)c1 [drawing 953] |  |  |  |  |  | 85% | 67% | 66% | 59% | 71% | 
4 | CO/N=C(/C(=O)OC)c1cccc(C)c1CO/N=C(\OC)c1cccc(C)c1 [drawing 954] |  |  |  |  |  | 65% | 93% | 81% | 53% | 67% | 
5 | CO/N=C(/C(=O)OC)c1cccc(C)c1CO/N=C(/c1cccc(C)c1)C1CC1 [drawing 955] |  |  |  |  |  | 100% | 100% | 87% | 78% | 87% | 
6 | CNC(=O)/C(=N/OC)c1cccc(C)c1CO/N=C(\OC)c1cccc(C)c1 [drawing 957] | 80% | 100% | 81% |  |  |  | 93% | 95% |  |  | 
7 | CNC(=O)/C(=N/OC)c1cccc(C)c1CO/N=C(/c1cccc(C)c1)C1CC1 [drawing 958] | 81% | 87% | 93% |  |  |  | 89% | 93% |  |  | 
8 | CO/N=C(/C(=O)OC)c1cccc(C)c1CO/N=C(\SC)c1cccc(Cl)c1 [drawing 960] | 88% | 39% | 82% |  |  |  | 94% | 100% |  |  | 
9 | CO/N=C(/C(=O)OC)c1cccc(C)c1CO/N=C(/c1cccc(Cl)c1)C1CC1 [drawing 961] | 83% | 39% | 89% |  |  |  | 81% | 89% |  |  | 
10 | CO/N=C(/C(=O)OC)c1cccc(C)c1CO/N=C(\SC)c1cccc(Cl)c1 [drawing 963] |  |  |  | 95% |  | 88% |  |  | 57% | 62% | 
11 | CO/N=C(/C(=O)OC)c1cccc(C)c1CO/N=C(/c1cccc(Cl)c1)C1CC1 [drawing 964] |  |  |  |  |  |  |  |  | 69% | 61% | 
12 | CNC(=O)/C(=N/OC)c1cccc(C)c1CO/N=C(\SC)c1cccc(Cl)c1 [drawing 966] | 100% | 59% | 82% |  |  |  |  | 90% |  |  | 43%
13 | CNC(=O)/C(=N/OC)c1cccc(C)c1CO/N=C(\SC)c1cccc(Cl)c1 [drawing 968] |  |  |  | 100% | 80% |  |  |  | 76% | 78% | 
